In paper PMC10401651, “Characterization of Uranyl (UO2^2+) Ion Binding to Amyloid Beta (Aβ) Peptides: Effects on Aβ Structure and Aggregation” (ACS Chemical Neuroscience, 2023):

Experiments:
[1] = target: T1, Aβ40 peptides (Homo sapiens, UniProt P05067); experiment: Fluorescence measurements of dityrosine cross-link formation; format: biochemical; conditions: 100 μM uranyl acetate, 10 μM Aβ40, 20 mM MES pH 7.3, 24 h, room temperature
T1 construct: namely, the Aβ40 peptide; purchased AlexoTech AB (Umeå, Sweden); host or cells: recombinant
Procedure: Two samples of Aβ40 peptides were studied. The control sample contained 100 μM EDTA to remove possible contaminating metal ions that could promote dityrosine formation. […] For both samples, the fluorescence spectra are virtually identical before and after 24 h of incubation (Figure 6). Specifically, no peak around 410 nm, indicative of dityrosine,[129],[130] has emerged.
Fluorescence emission spectra between 330 and 480 nm (excitation at 315 nm) were recorded at room temperature with a Jobin Yvon Horiba Fluorolog 3 fluorescence spectrometer (Longjumeau, France) for two samples of 10 μM Aβ40 peptide in 20 mM MES buffer, pH 7.3. […] The control sample contained 100 μM of the chelator EDTA to remove any free metal ions. All measurements were conducted in triplicate using a quartz cuvette with a 4 mm path length and containing a 0.7 mL liquid sample. Spectra were recorded after 0 and 24 h of incubation, during which the samples were kept at room temperature without agitation or other treatment.

[2] = target: T2, Aβ42 oligomers (Homo sapiens, UniProt P05067); experiment: BN-PAGE analysis of SDS-stabilized Aβ42 oligomer formation; format: biochemical
T2 construct: Synthetic lyophilized wt Aβ (1–42) peptides, abbreviated as Aβ42; purchased JPT Peptide Technologies (Germany); host or cells: synthetic peptide
Procedure: Treatment of Aβ42 peptides with low concentrations (≤7 mM) of SDS, i.e., below the critical micelle concentration for SDS, which is 8.2 mM in water at 25 °C,[152] leads to the formation of stable and homogeneous Aβ42 oligomers of certain sizes and conformations.[131],[132],[153] To prepare such oligomers, size exclusion chromatography (SEC) was initially used to purify synthetic Aβ42 peptides into monomeric form. First, 1 mg of lyophilized Aβ42 powder was dissolved in […] of DMSO. Next, a […] HiTrap desalting column (GE Healthcare, Uppsala) was equilibrated with a 5 mM NaOH solution (pH = 12.3) and washed with a solution of 10–15 mL of 5 mM NaOD, pD = 12.7.[154] The peptide solution in DMSO was applied to the column, followed by an injection of 1.25 mL of 5 mM NaOD. The collection of peptide fractions in 5 mM NaOD on ice was started at a […] flow rate. Ten fractions of 1 mL volumes were collected in 1.5 mL Eppendorf tubes. The absorbance for each fraction at 280 nm was measured with a NanoDrop instrument (Eppendorf, Germany), and peptide concentrations were determined using a molar extinction coefficient of 1280 M^–1 cm^–1 for the single Tyr in Aβ42.[155] The peptide fractions were flash-frozen in liquid nitrogen, covered with argon gas on top in 1.5 mL Eppendorf tubes, and stored at −80 °C until used. SDS-stabilized Aβ42 oligomers of two well-defined sizes (approximately tetramers and dodecamers) were prepared according to a previously published protocol,[131] but in D2O, at a 4-fold lower peptide concentration and without the original dilution step.[132]
Thus, 4–16% Bis–Tris Novex gels (Thermo Fisher Scientific, USA) were loaded with 10 μL samples containing Aβ42 oligomer solutions alongside alongside the Amersham high MW calibration kit for native electrophoresis (GE Healthcare, USA). The gels were run at 4 °C using the electrophoresis system according to the Invitrogen instructions (Thermo Fisher Scientific, USA) and then stained with the Pierce Silver Staining Kit according to the manufacturer’s instructions (Thermo Fisher Scientific, USA). […]

[3] = target: T2, Aβ42 oligomers; experiment: FTIR spectroscopy of SDS-stabilized Aβ42 oligomer structure
Procedure: The secondary structures of Aβ42 oligomers formed with different SDS and uranyl concentrations were studied with FTIR spectroscopy, where the amide I region (1700–1600 cm^–1) is very sensitive to changes in the protein backbone conformation, including differences in β-sheet structures.[133]−[135] […] This split pattern of IR bands in the amide I region is typical for anti-parallel β-sheet structures.[136]−[138]
Treatment of Aβ42 peptides with low concentrations (≤7 mM) of SDS, i.e., below the critical micelle concentration for SDS, which is 8.2 mM in water at 25 °C,[152] leads to the formation of stable and homogeneous Aβ42 oligomers of certain sizes and conformations.[131],[132],[153] […] The absorbance for each fraction at 280 nm was measured with a NanoDrop instrument (Eppendorf, Germany), and peptide concentrations were determined using a molar extinction coefficient of 1280 M^–1 cm^–1 for the single Tyr in Aβ42.[155] […]
FTIR spectra of the SDS-stabilized Aβ42 oligomers (prepared as described in Section 5.2) were recorded in transmission mode on a Tensor 37 FTIR spectrometer (Bruker Optics, Germany) equipped with a sample shutter and a liquid nitrogen-cooled MCT detector. […] FTIR spectra were recorded at room temperature in the 1900–800 cm^–1 range, with 300 scans for both background and sample spectra, using a 6 mm aperture and at a resolution of 2 cm^–1. […]

T2 sequence (P05067 672-713 limits assumed): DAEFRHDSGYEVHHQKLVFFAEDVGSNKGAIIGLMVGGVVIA
T1 sequence (P05067 672-711 limits assumed): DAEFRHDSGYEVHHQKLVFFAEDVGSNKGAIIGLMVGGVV

CC(=O)[O-].CC(=O)[O-].[O]=[U+2]=[O] [uranyl ions, uranyl acetate]
formation of dityrosine cross-links [1]: do not induce the formation of dityrosine cross-links | formation of AβO0.05%SDS oligomers (BN-PAGE) ([2]; 0.05% SDS, 10, 100, 1000 μM uranyl acetate, 80–100 μM Aβ42): no well-defined uniform oligomers were observed | concentration required for full disruption of homogeneous AβO0.05%SDS oligomers ([2]; 0.05% SDS, Aβ42 oligomers): 10 µM | formation of AβO0.2%SDS oligomers (BN-PAGE) ([2]; 0.2% SDS, 10, 100, 1000 μM uranyl, 80–100 μM Aβ42): gradually lower amounts of stable AβO0.2%SDS oligomers | β-sheet main band position (amide I, FTIR) ([3]; AβO0.05%SDS oligomers in PBS, 1 mM uranyl acetate (1628.3 without)): 1627.8 cm^–1 | β-sheet main band position (amide I, FTIR) ([3]; AβO0.2%SDS oligomers, 0.01, 0.1, and 1 mM uranyl acetate (1629.9 without)): 1629.8 cm^–1
